Results published in paper PMC4774972, “Activity and Predicted Nephrotoxicity of Synthetic Antibiotics Based on Polymyxin B” (Journal of Medicinal Chemistry, 2016).
Bridge positions count the residues as written; N and C are the ends. Square brackets hold non-standard residues; d marks the D form. Peptide text beside a SMILES is read from it. * marks the point of attachment. ξ: configuration not given here. ξGly(octyl) = CCCCCCCCC(N)C(=O)O; hSer = N[C@@H](CCO)C(=O)O; Octanoyl = CCCCCCCC(=O)*; Dab = NCC[C@H](N)C(=O)O

How the values were obtained:
[1] = system: A. baumannii CI Ptyela 100734512:2, PmxR; details: MIC A. baumannii CI Ptyela 100734512:2, PmxR (µg/mL)
[2] = system: K. pneumoniae CI 138-16357-20362, PmxR; details: MIC K. pneumoniae CI 138-16357-20362, PmxR (µg/mL)
[3] = system: K. pneumoniae CI Koprana 100650661:1, PmxR; details: MIC K. pneumoniae CI Koprana 100650661:1, PmxR (µg/mL)
[4] = system: P. aeruginosa FADDI-PA070, PmxR; details: MIC P. aeruginosa FADDI-PA070, PmxR (µg/mL)
[5] = system: P. aeruginosa PA9704, PmxR; details: MIC P. aeruginosa PA9704, PmxR (µg/mL)
[6] = system: S. aureus ATCC 25923, MSSA; details: MIC S. aureus ATCC 25923, MSSA (µg/mL)
[7] = system: HepG2; details: CC50 HepG2 (µM)
[8] = system: K. pneumoniae CI 138-16357-20362, PmxR; test: microbe, parasite or virus in culture; type: cell-based, Klebsiella pneumoniae; details: carbapenem & polymyxin resistant clinical isolate; MHB, 5 × 10^5 CFU/mL, 18 h at 37 °C
[9] = system: K. pneumoniae CI Koprana 100650661:1, PmxR; test: microbe, parasite or virus in culture; type: cell-based, Klebsiella pneumoniae; details: carbapenem & polymyxin resistant clinical isolate; MHB, 5 × 10^5 CFU/mL, 18 h at 37 °C
[10] = system: panel of predominantly G-ve bacteria
[11] = system: K. pneumoniae ATCC 13883; details: MIC K. pneumoniae ATCC 13883 (µg/mL)
[12] = system: A. baumannii ATCC 19606; type: cell-based, Acinetobacter baumannii; details: ATCC 19606, 18 h
Protocol: Bacteria were either obtained from American Type Culture Collection (ATCC; Manassas, VA, USA) or independent academic clinical isolate collections, as listed in Table S2. Bacteria were cultured in nutrient broth (NB; Bacto Laboratories, catalog no. 234000) or Muller Hinton broth (MHB; Bacto Laboratories, catalog no. 211443) at 37 °C overnight with shaking (∼180 rpm). A sample of each culture was then diluted 50-fold in fresh MHB and incubated at 37 °C for 1.5–3 h with shaking (∼180 rpm). Compound stock solutions were prepared as 0.64 or 2.56 mg/mL in water. The compounds, at twice the final desired concentration, were serially diluted 2-fold across the wells of 96-well plates (Polystyrene, Corning, catalogue No. 3370). Mid log phase bacterial cultures (after 1.5–3 h incubation) were diluted to a final concentration of 5 × 10^5 colony forming units (CFU)/mL, and 50 μL was added to each well giving a final compound concentration range of 32 μg/mL to 0.015 μg/mL (128–0.06 μg/mL for colistin and polymyxin B against the polymyxin resistant clinical isolates). MICs were determined visually after 18 h of incubation at 37 °C, with the MIC defined as the lowest compound concentration at which no bacterial growth was visible.
Table S2. Bacterial strains used for Minimum Inhibitory Concentration (MIC) […]
Organism Strain Strain description Strain Source
Escherichia coli ATCC 25922 FDA strain Seattle 1946 ATCC
Klebsiella pneumoniae ATCC 13883 Control strain ATCC
Klebsiella pneumoniae ATCC 700603 Multi-drug resistant ATCC
Klebsiella pneumoniae BAA-2146 Metallo-beta-lactamase- ATCC
Acinetobacter baumannii ATCC 19606 Type strain ATCC
Pseudomonas aeruginosa ATCC 27853 Type strain ATCC
Pseudomonas aeruginosa FADDI-PA070 Clinical isolate, Nation and Li labs, polymyxin resistant Monash University
Clinical isolate, Wang Hengzhuang, Pseudomonas aeruginosa PA9704 polymyxin resistant University Hospital of […]
Ptyela Clinical isolate, Ilias Karaiskos and Acinetobacter baumannii Carbapenem & Helen Giamarellou
Clinical isolate, Medicine, Hygeia
Klebsiella pneumoniae Koprana Carbapenem, & General Hospital, […]
Clinical isolate, (Instituto Dante […]
polymyxin resistant Cardiologia, São […]

CCCCCCCC(=O)N[C@@H](CCN)C(=O)N[C@H](C(=O)N[C@@H](CCN)C(=O)N[C@H]1CCNC(=O)[C@H]([C@@H](C)O)NC(=O)[C@H](CCN)NC(=O)[C@H](CCNC(=O)[C@@H](N)CCC(=O)O)NC(=O)[C@H](CC(C)C)NC(=O)[C@@H](Cc2ccccc2)NC(=O)[C@H](CCN)NC1=O)[C@@H](C)O [Compound 23] (Octanoyl-[Dab]T[Dab][Dab][Dab][dF]L[Dab](Glu)[Dab]T; lactam 4-C)
MIC [1]: > 32 mg/L
MIC [2]: > 32 mg/L
MIC [3]: > 32 mg/L
MIC [4]: > 32 mg/L
MIC [5]: > 32 mg/L
MIC [6]: > 32 mg/L
CC50 [7]: > 300 µM
MIC K. pneumoniae CI 138-16357-20362, PmxR [8]: >32 mg/L
MIC K. pneumoniae CI Koprana 100650661:1, PmxR [9]: >32 mg/L
MIC for most strains [10]: 1 to 8 mg/L

CCCCCCCC(=O)N[C@@H](CCN)C(=O)N[C@H](C(=O)N[C@@H](CCN)C(=O)N[C@H]1CCNC(=O)[C@H]([C@@H](C)O)NC(=O)[C@H](CCN)NC(=O)[C@H](CCO)NC(=O)[C@H](CC(C)C)NC(=O)[C@@H](Cc2ccccc2)NC(=O)[C@H](CCN)NC1=O)[C@@H](C)O [Compound 24] (Octanoyl-[Dab]T[Dab][Dab][Dab][dF]L[hSer][Dab]T; lactam 4-C)
MIC [1]: > 32 mg/L
MIC [11]: > 32 mg/L
MIC [2]: > 32 mg/L
MIC [3]: > 32 mg/L
MIC [4]: > 32 mg/L
MIC [5]: > 32 mg/L
MIC [6]: > 32 mg/L
CC50 [7]: > 300 µM
MIC K. pneumoniae CI 138-16357-20362, PmxR [8]: >32 mg/L
MIC K. pneumoniae CI Koprana 100650661:1, PmxR [9]: >32 mg/L
MIC for most strains [10]: 1 to 8 mg/L

CCCCCCCCC1NC(=O)[C@@H](Cc2ccccc2)NC(=O)[C@H](CCN)NC(=O)[C@@H](NC(=O)[C@H](CCN)NC(=O)[C@@H](NC(=O)[C@H](CCN)NC(=O)CCCCCCC)[C@@H](C)O)CCNC(=O)[C@H]([C@@H](C)O)NC(=O)[C@H](CCN)NC(=O)[C@H](CCN)NC1=O (stereo partly shown) [Compound 28] (Octanoyl-[Dab]T[Dab][Dab][Dab][dF][ξGly(octyl)][Dab][Dab]T; lactam 4-C)
MIC A. baumannii ATCC 19606 [12]: 1(1) μg/mL
